Assay results: the NIST ThermoML archive (doi:10.1021/je7004402)
± gives the expanded uncertainty stated by the source.

Key:
[1] = Liquid; Ebulliometric method (Recirculating still)
[2] = refractive index (Na D-line) (dimensionless); conditions: 298.15 K; 101.33 kPa; Liquid; Standard Abbe refractometry

| Structure (SMILES) | Normal boiling temperature [1] [°C] | refractive index [2] |
| --- | --- | --- |
| CCOC=O [ethyl methanoate] | 54.17 ± 0.2 | 1.35901 ± 0.00063 |
| C=COC(C)=O [vinyl acetate] | 72.80 ± 0.2 | 1.39236 ± 0.00053 |
| CC(C)c1ccccc1 [isopropylbenzene] | 152.29 ± 0.2 | 1.48829 ± 0.00053 |
